Species on record: Rattus norvegicus
Assay: Open TG-GATES - Regimen: Single
Assay type: toxicity, organism-based, Sprague-Dawley
Set-up: regimen Single, gender Male, age 6 weeks
Conditions: in vivo, po, 1000 mg/kg, route gavage, dose level High; for APTT / Bas / Eos / Fbg / Hb / Ht / Lym / MCH / MCHC / MCV / Mono / Neu / PT / Plat / RBC / Ret / WBC: tissue Blood; for KIDNEY_L / KIDNEY_R / KIDNEY_TOTAL: tissue Kidney; for LIVER: tissue Liver; for A/G / ALP / ALT / AST / BUN / CRE / Ca / Cl / DBIL / GLC / IP / K / LDH / Na / PL / RALB / TBIL / TC / TG / TP / gamma-GTP: tissue Plasma

`CCOC(=O)CCC(=O)O[C@H]1[C@H](O[C@@H]2[C@@H](C)[C@H](O[C@H]3C[C@@](C)(OC)[C@@H](O)[C@H](C)O3)[C@@H](C)C(=O)O[C@H](CC)[C@@](C)(O)[C@H](O)[C@@H](C)C(=O)[C@H](C)C[C@@]2(C)O)O[C@H](C)C[C@@H]1N(C)C` [ERYTHROMYCIN ETHYLSUCCINATE] showed a TERMINAL_BW (9 h) of 213.4 g, an APTT (9 h) of 23.1 s and a Bas (9 h) of 0%. It also gave an Eos (9 h) of 1%, a Fbg (9 h) of 304.8 mg/dL and a Hb (9 h) of 13.5 g/dL. The Ht (9 h) was 40.8%, the Lym (9 h) was 76.2% and the MCH (9 h) was 20.8 pg. The MCHC (9 h) was 33.1%, the MCV (9 h) was 62.8 fL and the Mono (9 h) was 2.6%. The Neu (9 h) was 19.8%, the PT (9 h) was 15.4 s and the Plat (9 h) was 121.3 x10_4/uL. For the same compound, the RBC (9 h) was 650.4 x10_4/ul, the Ret (9 h) was 7.2% and the WBC (9 h) was 67.2 x10_2/uL. It also gave a KIDNEY_L (9 h) of 1 g, a KIDNEY_R (9 h) of 1 g and a KIDNEY_TOTAL (9 h) of 2 g. For the same compound, the LIVER (9 h) was 8.5 g, the A/G (9 h) was 1.2 and the ALP (9 h) was 1688.2 IU/L. The ALT (9 h) was 40.4 IU/L, the AST (9 h) was 73 IU/L and the BUN (9 h) was 9 mg/dL. The CRE (9 h) was 0.1 mg/dL, the Ca (9 h) was 10.5 mg/dL and the Cl (9 h) was 105.8 meq/L. It also gave a DBIL (9 h) of 0 mg/dL, a GLC (9 h) of 173.8 mg/dL and an IP (9 h) of 9.7 mg/dL. The K (9 h) was 4.2 meq/L, the LDH (9 h) was 169.2 IU/L and the Na (9 h) was 139.2 meq/L. For the same compound, the PL (9 h) was 144.4 mg/dL, the RALB (9 h) was 3 g/dL and the TBIL (9 h) was 0.036 mg/dL. It also gave a TC (9 h) of 69.2 mg/dL, a TG (9 h) of 54.4 mg/dL and a TP (9 h) of 5.5 g/dL. It also gave a gamma-GTP (9 h) of 1 IU/L, a TERMINAL_BW (24 h) of 227.7 g and an APTT (24 h) of 20.2 s. For the same compound, the Bas (24 h) was 0%, the Eos (24 h) was 1% and the Fbg (24 h) was 337.4 mg/dL. It also gave a Hb (24 h) of 13.9 g/dL, a Ht (24 h) of 41.8% and a Lym (24 h) of 85.4%. For the same compound, the MCH (24 h) was 20.9 pg, the MCHC (24 h) was 33.2% and the MCV (24 h) was 62.8 fL. It also gave a Mono (24 h) of 3%, a Neu (24 h) of 8.8% and a PT (24 h) of 16.3 s. It also gave a Plat (24 h) of 125.6 x10_4/uL, an RBC (24 h) of 666 x10_4/ul and a Ret (24 h) of 7.1%. The WBC (24 h) was 93.9 x10_2/uL, the KIDNEY_L (24 h) was 1 g and the KIDNEY_R (24 h) was 1 g. For the same compound, the KIDNEY_TOTAL (24 h) was 2 g, the LIVER (24 h) was 9.4 g and the A/G (24 h) was 1.2. The ALP (24 h) was 1448.8 IU/L, the ALT (24 h) was 34 IU/L and the AST (24 h) was 66.4 IU/L. The BUN (24 h) was 16.8 mg/dL, the CRE (24 h) was 0.1 mg/dL and the Ca (24 h) was 10.6 mg/dL. The Cl (24 h) was 107.6 meq/L, the DBIL (24 h) was 0 mg/dL and the GLC (24 h) was 197.8 mg/dL. The IP (24 h) was 9 mg/dL, the K (24 h) was 4.3 meq/L and the LDH (24 h) was 209.6 IU/L. The Na (24 h) was 142.8 meq/L, the PL (24 h) was 139.6 mg/dL and the RALB (24 h) was 3 g/dL. The TBIL (24 h) was 0.024 mg/dL, the TC (24 h) was 86.6 mg/dL and the TG (24 h) was 53.2 mg/dL. For the same compound, the TP (24 h) was 5.6 g/dL and the gamma-GTP (24 h) was 1.2 IU/L.
